In the supplement of paper PMC10307832:

Experiments:
Assay in all cases: relative viability (nuclei count vs DMSO), 5 days (fraction); higher = more cells survive
[1] = compound: CC(C)C[C@@H](C(=O)N[C@H](C(=O)OC1CCCC1)c1ccccc1)[C@H](O)C(=O)NO [Tosedostat] + Cc1cc(Nc2cc(N3CCN(C)CC3)nc(Sc3ccc(NC(=O)C4CC4)cc3)n2)n[nH]1 [Tozasertib] (partner 0.1 µM)
How it was run: (§1)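 Cells from lung cancer lines were seeded into 1536-well plates and, one day later, dosed by pin tool. Treatments were either a single drug or a fixed dose of an anchor drug with five library-drug doses (not always all listed) in √10 steps. After 5 days, nuclei were stained in a one-step fixation (final 0.05% Triton X-100, 1% formaldehyde, 1 ug/ml Hoechst) and counted on 4× images, and relative viability is the treated-to-vehicle nuclei ratio, as the median of duplicate plates.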

[2] = compound: CC1=NN=C(O1)C2=NN=C(C=C2)N3CCC(CC3)OC4=C(C=CC(=C4)F)Cl + CC(=O)c1c(C)c2cnc(Nc3ccc(N4CCNCC4)cn3)nc2n(C2CCCC2)c1=O [Palbociclib] (partner 0.5 µM)
How it was run: as §1

[3] = compound: CC1=NN=C(O1)C2=NN=C(C=C2)N3CCC(CC3)OC4=C(C=CC(=C4)F)Cl + CC1(C)CCC(c2ccc(Cl)cc2)=C(CN2CCN(c3ccc(C(=O)NS(=O)(=O)c4ccc(N[C@H](CCN5CCOCC5)CSc5ccccc5)c(S(=O)(=O)C(F)(F)F)c4)cc3)CC2)C1 [Navitoclax] (partner 0.5 µM)
How it was run: as §1

[4] = compound: CC1=NN=C(O1)C2=NN=C(C=C2)N3CCC(CC3)OC4=C(C=CC(=C4)F)Cl + C[C@]1(O)C[C@@H](c2nc(-c3ccc4ccc(-c5ccccc5)nc4c3)c3c(N)nccn32)C1 [Linsitinib] (partner 1 µM)
How it was run: as §1

Row | Cell Line | relative viability ([1]; first compound 0.02 µM) | relative viability ([1]; first compound 0.06325 µM) | relative viability ([1]; first compound 0.2 µM) | relative viability ([1]; first compound 0.6325 µM) | relative viability ([1]; first compound 2 µM) | relative viability ([2]; first compound 0.253 µM) | relative viability ([2]; first compound 0.8 µM) | relative viability ([2]; first compound 2.53 µM) | relative viability ([2]; first compound 8 µM) | relative viability ([3]; first compound 0.253 µM) | relative viability ([3]; first compound 0.8 µM) | relative viability ([3]; first compound 2.53 µM) | relative viability ([3]; first compound 8 µM) | relative viability ([4]; first compound 0.253 µM) | relative viability ([4]; first compound 0.8 µM) | relative viability ([4]; first compound 2.53 µM) | relative viability ([4]; first compound 8 µM)
1 | COR-L 105 | 0.359 | 0.291 | 0.392 | 0.378 | 0.338 | 0.403 | 0.477 | 0.405 | 0.495 | 0.686 | 0.846 | 0.622 | 0.727 | 0.764 | 0.935 | 1.1 | 1.21
2 | PC-3 [JPC-3] | 0.892 | 0.954 | 0.87 | 0.802 | 0.571 | 0.507 | 0.538 | 0.537 | 0.551 | 0.764 | 0.691 | 0.796 | 0.722 | 0.789 | 0.869 | 0.869 | 0.844
3 | NCI-H1755 | 0.665 | 0.578 | 0.477 | 0.386 | 0.319 | 0.334 | 0.451 | 0.464 | 0.4 | 0.615 | 0.682 | 0.676 | 0.655 | 0.661 | 0.754 | 0.728 | 0.683
4 | NCI-H23 | 0.491 | 0.347 | 0.41 | 0.26 | 0.294 | 0.44 | 0.442 | 0.466 | 0.454 | 0.808 |  | 0.71 | 0.722 | 0.482 |  | 0.543 | 0.521
5 | NCI-H1915 | 0.473 | 0.432 | 0.492 | 0.352 | 0.289 | 0.385 | 0.291 | 0.319 | 0.266 | 0.372 | 0.281 | 0.348 | 0.277 | 0.582 | 0.51 | 0.45 | 0.376
6 | NCI-H2405 | 0.764 | 0.737 | 0.76 | 0.667 | 0.612 | 0.319 | 0.349 | 0.332 | 0.346 | 0.902 | 0.722 | 0.784 | 0.83 | 0.859 | 0.784 | 0.851 | 0.731
7 | EMC-BAC-2 | 0.281 | 0.27 | 0.265 | 0.242 | 0.187 | 0.492 | 0.513 | 0.502 | 0.513 | 0.998 | 0.909 | 1.03 | 0.936 | 0.742 | 0.755 | 0.77 | 0.637
8 | NCI-H2087 | 0.301 | 0.284 | 0.277 | 0.108 | 0.081 | 0.239 | 0.262 | 0.21 | 0.195 | 0.701 | 0.713 | 0.724 | 0.63 | 0.646 | 0.659 | 0.621 | 0.53
9 | NCI-H727 | 0.586 | 0.535 |  | 0.45 | 0.415 | 0.672 | 0.708 | 0.718 | 0.596 | 0.479 | 0.36 | 0.368 | 0.262 | 0.189 | 0.251 | 0.327 | 0.251
10 | PC-14 | 0.586 | 0.562 | 0.52 | 0.51 | 0.399 | 0.503 | 0.444 | 0.449 | 0.44 | 0.742 | 0.717 | 0.719 | 0.702 | 0.783 | 0.732 | 0.777 | 0.739
11 | NCI-H2009 | 0.821 | 0.765 | 0.697 | 0.647 | 0.607 | 0.175 | 0.204 | 0.156 | 0.158 | 0.667 | 0.671 | 0.614 | 0.54 | 0.684 | 0.636 | 0.623 | 0.589
12 | NCI-H1975 | 0.955 | 0.749 | 0.916 | 0.575 | 0.471 | 0.2 | 0.363 | 0.517 | 0.411 |  | 0.82 | 0.838 | 0.882 |  | 0.941 | 0.815 | 0.868
13 | NCI-H1437 | 0.403 | 0.395 | 0.389 | 0.337 | 0.166 | 0.22 | 0.233 | 0.268 | 0.168 | 0.571 | 0.66 | 0.564 | 0.46 | 0.552 | 0.644 | 0.689 | 0.487
14 | NCI-H2126 | 0.829 | 0.853 | 0.852 | 0.789 | 0.618 | 0.368 | 0.338 | 0.326 | 0.353 | 0.785 | 0.759 | 0.747 | 0.645 | 0.67 | 0.64 | 0.753 | 0.505
15 | LU99A | 0.253 | 0.284 | 0.277 | 0.242 | 0.225 | 0.402 | 0.484 | 0.443 | 0.418 | 0.836 | 0.723 | 0.858 | 0.582 | 0.459 | 0.5 | 0.498 | 0.466
16 | NCI-H460 | 0.313 | 0.502 | 0.687 | 0.325 | 0.264 | 0.0613 | 0.0812 | 0.0833 | 0.0883 | 0.429 | 0.42 | 0.45 | 0.392 | 0.331 | 0.3 | 0.398 | 0.342
17 | LCLC-97TM1 | 0.216 | 0.203 | 0.184 | 0.165 | 0.172 | 0.184 |  | 0.164 | 0.19 | 0.623 |  | 0.67 | 0.447 | 0.159 |  | 0.174 | 0.191
